Data taken from article PMC5617480 (Oncotarget, 2017).

Test system: BEL-7404 cells
Assay: Senescence induction (SA-β-Gal staining)
Type: cell-based, human
Conditions: BEL-7404, 2.0 μM, 7 d, compared with complexes 4 and 5
Experimental: Platinum(II)-based drugs were widely used in anticancer chemotherapies, therefore, we performed experiments to test the potency of chiral platinum(II) complexes 4–6 for inducing senescence and apoptosis in BEL-7404 cells. […] We next investigated the effect of complexes 4–6 on the induction of apoptosis. BEL-7404 cells were incubated with complexes 4 (10 and 20 μM), 5 (10 and 20 μM) and 6 (5, 10 and 20 μM) for 24 h, respectively, and then these cells staining with PI and Annexin-V-FITC were determined by flow cytometry (Figure 3A and Supplementary Figure 18). […] Cells were treated with complexes 4–6 at 10 μM for 48 h, the cell cycle arrest was determined by using flow cytometry. […]
Apoptosis analysis c-myc antibody, or anti-β-actin primary antibody and the Apoptosis was detected by flow cytometric analysis corresponding secondary antibody were used to detect of annexin V staining. […] Then, cells were incubated with annexin V-FITC and PI for 1.0 h at Staining for SA-β-Gal activity was carried out room temperature in the dark and immediately analyzed according to Moore and Chen reports. […] The data are presented as biparametric After the long-term incubation with complexes 4–6, the dot plots showing PI red fluorescence vs annexin V-FITC growth medium was aspirated and the BEL-7404 cells green fluorescence. were fixed in 2% formaldehyde/0.2% glutaraldehyde for 15.0 min at room temperature. […]

Substance: cis-[PtCl2(S-(–)-FOA)] [complex 6]
- level of senescence (β-galactosidase stain): higher level of senescence
